From US20240115557A1, “INHIBITORS OF RNA-GUIDED NUCLEASES AND USES THEREOF” (The Brigham and Women's Hospital, Inc., priority 2022, published 2024)

Biological target: T1, SaCas9 (Staphylococcus aureus, UniProt J7RUA5)
T1 sequence (J7RUA5 1-1053): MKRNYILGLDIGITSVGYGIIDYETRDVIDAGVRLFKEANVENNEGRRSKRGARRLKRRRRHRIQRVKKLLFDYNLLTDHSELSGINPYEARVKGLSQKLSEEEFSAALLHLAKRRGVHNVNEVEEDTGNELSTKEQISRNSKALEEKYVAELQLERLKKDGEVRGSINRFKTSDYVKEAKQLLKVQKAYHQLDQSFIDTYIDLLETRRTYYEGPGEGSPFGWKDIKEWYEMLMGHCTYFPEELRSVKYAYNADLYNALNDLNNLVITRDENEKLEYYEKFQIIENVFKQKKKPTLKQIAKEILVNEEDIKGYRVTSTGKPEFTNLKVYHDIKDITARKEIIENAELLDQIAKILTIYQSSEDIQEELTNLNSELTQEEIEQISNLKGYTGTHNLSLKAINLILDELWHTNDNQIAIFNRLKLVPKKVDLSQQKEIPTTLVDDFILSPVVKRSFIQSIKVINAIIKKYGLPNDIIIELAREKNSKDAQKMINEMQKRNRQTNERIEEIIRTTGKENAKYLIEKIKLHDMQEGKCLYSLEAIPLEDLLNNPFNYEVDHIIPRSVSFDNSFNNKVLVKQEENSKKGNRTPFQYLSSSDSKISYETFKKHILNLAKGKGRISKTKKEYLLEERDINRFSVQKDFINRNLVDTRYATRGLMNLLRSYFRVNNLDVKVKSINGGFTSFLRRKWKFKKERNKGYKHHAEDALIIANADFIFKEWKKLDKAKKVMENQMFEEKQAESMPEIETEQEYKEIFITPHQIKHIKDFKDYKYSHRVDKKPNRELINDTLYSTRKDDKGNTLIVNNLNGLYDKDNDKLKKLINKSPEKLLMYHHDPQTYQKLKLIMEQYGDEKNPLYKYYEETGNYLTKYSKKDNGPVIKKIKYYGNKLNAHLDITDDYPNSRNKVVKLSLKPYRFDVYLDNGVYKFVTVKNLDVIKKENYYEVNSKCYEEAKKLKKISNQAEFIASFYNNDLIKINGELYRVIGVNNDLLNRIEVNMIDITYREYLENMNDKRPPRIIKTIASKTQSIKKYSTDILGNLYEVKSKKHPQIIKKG
Test: eGFP secondary assay, SaCas9
Assay type: cell-based
Conditions: for Z score Avg Z: average of two replicates, Zscore>3 selected as hit; for Normalized Inhibition Rep 1: replicate 1; for Normalized eGFP Disruption Rep 1: replicate 1, % eGFP disruption; for Z score Rep1: replicate 1, Zscore>3 selected as hit; for Normalized Inhibition Rep 2: replicate 2; for Normalized eGFP Disruption Rep 2: replicate 2, % eGFP disruption; for Z score Rep 2: replicate 2, Zscore>3 selected as hit
Method: All hit compounds were moved forward into the secondary and tertiary screens, in which they were tested in cell-based assays. An eGFP assay is used to determine hits in cells as the secondary screen (eGFP assay).
The eGFP secondary assay evaluated the hits identified from the primary screen. The compounds were judged off the % eGFP disruption to determine the Cas9 inhibition and the assay Zscore. […] The hits from the secondary screens will be processed through tertiary screens of dose studies and HiBit Assay as detailed herein.

Cc1cccc(NC(=O)c2cc3c(=O)n4ccccc4nc3s2)c1 [C243-0026]
Z score Avg Z: 3.100 | Normalized Inhibition Rep 1: 30.470 | Normalized eGFP Disruption Rep 1: 69.530 | Z score Rep1: 3.063 | Normalized Inhibition Rep 2: 40.519 | Normalized eGFP Disruption Rep 2: 59.481 | Z score Rep 2: 3.136

CCOc1ccc(NC(=O)c2cc(=O)c3cc(CC)ccc3o2)c2cccnc12 [Compound D656-0061]
Z score Avg Z: 3.973 | Normalized Inhibition Rep 1: 7.616 | Normalized eGFP Disruption Rep 1: 92.384 | Z score Rep1: 1.153 | Normalized Inhibition Rep 2: 56.899 | Normalized eGFP Disruption Rep 2: 43.101 | Z score Rep 2: 6.794

CCCCn1nnnc1NCc1ccc2c(c1)n(C)c(=O)n2C [Compound D664-0047]
Z score Avg Z: 4.425 | Normalized Inhibition Rep 1: 21.201 | Normalized eGFP Disruption Rep 1: 78.799 | Z score Rep1: 3.210 | Normalized Inhibition Rep 2: 47.229 | Normalized eGFP Disruption Rep 2: 52.771 | Z score Rep 2: 5.639

Fc1cccc(-c2nnc3sc(-c4c[nH]c5ccccc45)nn23)c1 [Compound D727-0772]
Z score Avg Z: 3.957 | Normalized Inhibition Rep 1: 42.243 | Normalized eGFP Disruption Rep 1: 57.757 | Z score Rep1: 6.397 | Normalized Inhibition Rep 2: 12.707 | Normalized eGFP Disruption Rep 2: 87.293 | Z score Rep 2: 1.517

Cc1ccc(-n2ncc(C(=O)Nc3ccc(Br)cc3)c2C2CCNCC2)cc1 [Compound E922-0258]
Z score Avg Z: 7.627 | Normalized Inhibition Rep 1: 63.301 | Normalized eGFP Disruption Rep 1: 36.699 | Z score Rep1: 7.494 | Normalized Inhibition Rep 2: 59.004 | Normalized eGFP Disruption Rep 2: 40.996 | Z score Rep 2: 7.761

CCCCN(CC)C(=O)C1CCCN(c2ccc(-c3ccccc3)nn2)C1 (stereo not shown) [Compound F305-0030]
Z score Avg Z: 4.852 | Normalized Inhibition Rep 1: 42.608 | Normalized eGFP Disruption Rep 1: 57.392 | Z score Rep1: 5.044 | Normalized Inhibition Rep 2: 35.423 | Normalized eGFP Disruption Rep 2: 64.577 | Z score Rep 2: 4.659

Cc1nc(Nc2ccc(N3CCOCC3)cc2)cc(-c2ccccc2)n1 [D278-0547]
Z score Avg Z: 4.467 | Normalized Inhibition Rep 1: 55.528 | Normalized eGFP Disruption Rep 1: 44.472 | Z score Rep1: 5.583 | Normalized Inhibition Rep 2: 43.307 | Normalized eGFP Disruption Rep 2: 56.693 | Z score Rep 2: 3.352

Cc1ccccc1CC(=O)N1CCCC(c2nc(O)c3nnn(Cc4ccc(F)cc4)c3n2)C1 (stereo not shown) [D297-0031]
Z score Avg Z: 3.488 | Normalized Inhibition Rep 1: 35.959 | Normalized eGFP Disruption Rep 1: 64.041 | Z score Rep1: 3.615 | Normalized Inhibition Rep 2: 43.425 | Normalized eGFP Disruption Rep 2: 56.575 | Z score Rep 2: 3.361

Cc1cc(=O)c2cc(C(=O)Nc3ccc(F)cc3)ccc2[nH]1 [D421-0876]
Z score Avg Z: 3.719 | Normalized Inhibition Rep 1: 37.535 | Normalized eGFP Disruption Rep 1: 62.465 | Z score Rep1: 3.774 | Normalized Inhibition Rep 2: 47.343 | Normalized eGFP Disruption Rep 2: 52.657 | Z score Rep 2: 3.664

Cc1nc2nc(N(CCOc3ccccc3)S(=O)(=O)c3ccccc3)nn2c(C)c1Cl [D513-3628]
Z score Avg Z: 5.173 | Normalized Inhibition Rep 1: 51.726 | Normalized eGFP Disruption Rep 1: 48.274 | Z score Rep1: 5.201 | Normalized Inhibition Rep 2: 66.480 | Normalized eGFP Disruption Rep 2: 33.520 | Z score Rep 2: 5.145

Cc1ccc(C)c(Nc2nc(C(N)=O)c(NC(=O)c3ccc(C)nc3Cl)s2)c1 [D686-0195]
Z score Avg Z: 6.110 | Normalized Inhibition Rep 1: 29.879 | Normalized eGFP Disruption Rep 1: 70.121 | Z score Rep1: 4.525 | Normalized Inhibition Rep 2: 64.458 | Normalized eGFP Disruption Rep 2: 35.542 | Z score Rep 2: 7.696

O=c1oc2c(O)c(O)ccc2c2c1CCCC2 [D715-2438]
Z score Avg Z: 3.681 | Normalized Inhibition Rep 1: 17.908 | Normalized eGFP Disruption Rep 1: 82.092 | Z score Rep1: 2.712 | Normalized Inhibition Rep 2: 38.947 | Normalized eGFP Disruption Rep 2: 61.053 | Z score Rep 2: 4.650

COc1ccccc1-c1nn2c(-c3cccnc3)nnc2s1 [D727-0059]
Z score Avg Z: 3.290 | Normalized Inhibition Rep 1: 17.227 | Normalized eGFP Disruption Rep 1: 82.773 | Z score Rep1: 2.609 | Normalized Inhibition Rep 2: 33.253 | Normalized eGFP Disruption Rep 2: 66.747 | Z score Rep 2: 3.970

Cc1cc(-c2nn3c(-c4cccc(F)c4)nnc3s2)c2ccccc2n1 [D727-0417]
Z score Avg Z: 3.995 | Normalized Inhibition Rep 1: 33.326 | Normalized eGFP Disruption Rep 1: 66.674 | Z score Rep1: 5.046 | Normalized Inhibition Rep 2: 24.659 | Normalized eGFP Disruption Rep 2: 75.341 | Z score Rep 2: 2.944

Cc1nn(-c2ccccc2)c(C)c1CCc1nnc2sc(-c3ccc(N(C)C)cc3)nn12 [D727-0717]
Z score Avg Z: 6.053 | Normalized Inhibition Rep 1: 33.284 | Normalized eGFP Disruption Rep 1: 66.716 | Z score Rep1: 5.040 | Normalized Inhibition Rep 2: 59.171 | Normalized eGFP Disruption Rep 2: 40.829 | Z score Rep 2: 7.065

CC(C)Cc1nnc2sc(-c3c[nH]c4ccccc34)nn12 [D727-0768]
Z score Avg Z: 4.634 | Normalized Inhibition Rep 1: 20.049 | Normalized eGFP Disruption Rep 1: 79.951 | Z score Rep1: 3.036 | Normalized Inhibition Rep 2: 52.187 | Normalized eGFP Disruption Rep 2: 47.813 | Z score Rep 2: 6.231

COc1cccc(N2C(=O)c3cc4ccccc4n3CC2(C)C(=O)NC2CCCCC2)c1 (stereo not shown) [E234-0006]
Z score Avg Z: 5.194 | Normalized Inhibition Rep 1: 57.048 | Normalized eGFP Disruption Rep 1: 42.952 | Z score Rep1: 6.753 | Normalized Inhibition Rep 2: 27.639 | Normalized eGFP Disruption Rep 2: 72.361 | Z score Rep 2: 3.635

CC1(C(=O)NC2CCCCC2)Cn2c(cc3ccccc32)C(=O)N1Cc1ccccc1 (stereo not shown) [E234-0008]
Z score Avg Z: 5.237 | Normalized Inhibition Rep 1: 50.589 | Normalized eGFP Disruption Rep 1: 49.411 | Z score Rep1: 5.989 | Normalized Inhibition Rep 2: 34.101 | Normalized eGFP Disruption Rep 2: 65.899 | Z score Rep 2: 4.485

COc1ccc(N2C(=O)c3cc4ccccc4n3CC2(C)C(=O)NC2CCCCC2)c(OC)c1 (stereo not shown) [E234-0018]
Z score Avg Z: 3.770 | Normalized Inhibition Rep 1: 38.606 | Normalized eGFP Disruption Rep 1: 61.394 | Z score Rep1: 4.570 | Normalized Inhibition Rep 2: 22.579 | Normalized eGFP Disruption Rep 2: 77.421 | Z score Rep 2: 2.970

CC(=O)Nc1ccc(C(=O)Nc2ccc(CCc3nc4ccccc4n3-c3ccccc3)cc2)cc1 [F255-0057]
Z score Avg Z: 5.773 | Normalized Inhibition Rep 1: 46.812 | Normalized eGFP Disruption Rep 1: 53.188 | Z score Rep1: 5.542 | Normalized Inhibition Rep 2: 45.641 | Normalized eGFP Disruption Rep 2: 54.359 | Z score Rep 2: 6.003

CCCN(CCC)C(=O)C1CCCN(c2ccc(-c3ccccc3)nn2)C1 (stereo not shown) [F305-0061]
Z score Avg Z: 5.220 | Normalized Inhibition Rep 1: 39.473 | Normalized eGFP Disruption Rep 1: 60.527 | Z score Rep1: 4.673 | Normalized Inhibition Rep 2: 43.845 | Normalized eGFP Disruption Rep 2: 56.155 | Z score Rep 2: 5.767

O=C1c2ccccc2C(=O)c2oc(-c3ccc(F)cc3)nc21 [T0502-0200]
Z score Avg Z: 3.138 | Normalized Inhibition Rep 1: 35.091 | Normalized eGFP Disruption Rep 1: 64.909 | Z score Rep1: 3.528 | Normalized Inhibition Rep 2: 35.519 | Normalized eGFP Disruption Rep 2: 64.481 | Z score Rep 2: 2.749
